Assay results reported in US8324390B2, “Tetrazole-substituted anthranilamides as pesticides” (Bayer CropScience AG, priority 2008, dated 2012).
Like-named read-outs stand apart in the source and are kept apart here.

Legend:
[1] = log P determination by HPLC (EEC Directive 79/831 Annex V.A8); assay type: physicochemical
Protocol: The measurements were carried out using an Agilent 1100 LC system with a 50*4.6 Zorbax Eclipse C18 1.8 μm column (oven temperature 55° C., flow rate 2.0 ml/min).
The following mobile phases were used:
Mobile phase A: acetonitrile+1000 μl of formic acid/l
Mobile phase B: Millipore water+900 μl of formic acid/l

[2] = system: larvae of the mustard beetle (Phaedon cochleariae); assay: Phaedon test (PHAECO spray treatment); conditions: Phaedon cochleariae, in Brassica rapa, foliar, read-out: effect in % (beetle larvae killed)
[3] = system: caterpillars of the armyworm (Spodoptera frugiperda); assay: Spodoptera frugiperda test (SPODFR spray treatment); assay type: in vivo; conditions: Spodoptera frugiperda, foliar, read-out: effect in % (caterpillars killed)
Source text: Solvent: 78.0 parts by weight of acetone

[4] = reversed-phase HPLC, Zorbax Eclipse C18 column, by HPLC according to EEC Directive 79/831 Annex V.A8, read-out: log P
[5] = application rate 100 g/ha, maize leaf discs
[6] = reversed-phase HPLC, Zorbax Eclipse C18 column, determined by HPLC according to EEC Directive 79/831 Annex V.A8, read-out: log P
[7] = by HPLC according to EEC Directive 79/831 Annex V.A8, read-out: log P

Cc1cc(C#N)cc(C(=O)NCCCN)c1NC(=O)c1cc(Cn2nnc(C(F)(F)F)n2)nn1-c1ncccc1Cl [Example 124]
chromatographic logP ([1]; log P): 1.63
pest or weed control at 100 g/ha [2]: ≥ 80%
pest or weed control at 100 g/ha ([3]; in Zea mays): ≥ 80%

CCNC(=O)c1cc(Cl)cc(Cl)c1NC(=O)c1cc(Cn2nnc(C(F)(F)F)n2)nn1-c1ncccc1Cl [Example 58]
chromatographic logP ([1]; log P): 3.17
pest or weed control at 100 g/ha [2]: ≥ 80%
pest or weed control at 100 g/ha ([3]; in Zea mays): ≥ 80%

Cc1cc(I)cc(C(=O)NC2CC2)c1NC(=O)c1cc(Cn2nnc(C(F)(F)F)n2)nn1-c1ncccc1Br [Example 350]
chromatographic logP [1, 4]: 3.45
pest or weed control at 100 g/ha [2]: ≥ 80%
pest or weed control at 100 g/ha [3, 5]: ≥ 80%

Cc1cc(I)cc(C(=O)NCC2CC2)c1NC(=O)c1cc(Cn2nnc(C(F)F)n2)nn1-c1ncccc1Cl [Example 279]
chromatographic logP ([1]; log P): 3.27
pest or weed control at 100 g/ha [2]: ≥ 80%
pest or weed control at 100 g/ha ([3]; in Zea mays): ≥ 80%

Cc1cc(C#N)cc(C(=O)NC(C#N)C2CC2)c1NC(=O)c1cc(Cn2nnc(C(F)(F)F)n2)nn1-c1ncccc1Cl (stereo not drawn) [Example 321]
chromatographic logP ([1]; log P): 3.05
pest or weed control at 100 g/ha [2]: ≥ 80%
pest or weed control at 100 g/ha ([3]; in Zea mays): ≥ 80%

Cc1cc(Br)cc(C(=O)NC(C)(C)C)c1NC(=O)c1cc(Cn2nnc(C(F)(F)F)n2)nn1-c1ncccc1C(F)(F)F [Example 245]
chromatographic logP [1, 4]: 4.13
pest or weed control at 100 g/ha [2]: ≥ 80%
pest or weed control at 100 g/ha [3, 5]: ≥ 80%

Cc1cc(Cl)cc(C(=O)NC(C)(C)C)c1NC(=O)c1cc(Cn2nnc(C(F)F)n2)nn1-c1ncccc1Cl [Example 258]
chromatographic logP ([1]; log P): 3.32
pest or weed control at 100 g/ha [2]: ≥ 80%
pest or weed control at 100 g/ha ([3]; in Zea mays): ≥ 80%

O=C(NC1CCC1)c1cc(Cl)cc(Cl)c1NC(=O)c1cc(Cn2nnc(C(F)(F)C(F)(F)F)n2)nn1-c1ncccc1Cl [Example 157]
chromatographic logP ([1]; log P): 3.92
pest or weed control at 100 g/ha [2]: ≥ 80%
pest or weed control at 100 g/ha ([3]; in Zea mays): ≥ 80%

Cc1cc(Cl)cc(C(=O)NCC#N)c1NC(=O)c1cc(Cn2nnc(C(F)(F)F)n2)nn1-c1ncccc1C(F)(F)F [Example 252]
chromatographic logP [1, 4]: 3.28
pest or weed control at 100 g/ha [2]: ≥ 80%
pest or weed control at 100 g/ha [3, 5]: ≥ 80%

Cc1cc(Cl)cc(C(=O)NC(C)C)c1NC(=O)c1cc(Cn2nnc(C(F)F)n2)nn1-c1ncccc1Cl [Example 231]
chromatographic logP ([1]; log P): 2.95
pest or weed control at 100 g/ha [2]: ≥ 80%
pest or weed control at 100 g/ha ([3]; in Zea mays): ≥ 80%

Cc1cc(C#N)cc(C(=O)NCC(F)(F)F)c1NC(=O)c1cc(Cn2nnc(C(F)(F)F)n2)nn1-c1ccccc1Cl [Example 537]
chromatographic logP [1, 6]: 3.48
pest or weed control at 100 g/ha [2]: ≥ 80%
pest or weed control at 100 g/ha [3, 5]: ≥ 80%

Cc1cc(C#N)cc(C(=O)NCC2CC2(Cl)Cl)c1NC(=O)c1cc(Cn2nnc(C(F)(F)F)n2)nn1-c1ncccc1Cl (stereo not drawn) [Example 88]
chromatographic logP ([1]; log P): 3.5
pest or weed control at 100 g/ha [2]: ≥ 80%
pest or weed control at 100 g/ha ([3]; in Zea mays): ≥ 80%

O=C(NCC1CC1)c1cc(Cl)cc(Cl)c1NC(=O)c1cc(Cn2nnc(C(F)(F)F)n2)nn1-c1ncccc1Cl [Example 63]
chromatographic logP ([1]; log P): 3.47
pest or weed control at 100 g/ha [2]: ≥ 80%
pest or weed control at 100 g/ha ([3]; in Zea mays): ≥ 80%

Cc1cc(I)cc(C(N)=O)c1NC(=O)c1cc(Cn2nnc(C(F)(C(F)(F)F)C(F)(F)F)n2)nn1-c1ncccc1Cl [Example 382]
chromatographic logP ([1]; log P): 3.67
pest or weed control at 100 g/ha [2]: ≥ 80%
pest or weed control at 100 g/ha ([3]; in Zea mays): ≥ 80%

CNC(=O)c1cc(Cl)cc(C)c1NC(=O)c1cc(Cn2nnc(C(F)(F)F)n2)nn1-c1ncccc1C(F)(F)F [Example 226]
chromatographic logP [1, 4]: 3.16
pest or weed control at 100 g/ha [2]: ≥ 80%
pest or weed control at 100 g/ha [3, 5]: ≥ 80%

Cc1cc(C#N)cc(C(=O)NC(C)(C)C)c1NC(=O)c1cc(Cn2nnc(C(C)(C)C)n2)nn1-c1ncccc1Cl [Example 100]
chromatographic logP ([1]; log P): 3.44
pest or weed control at 100 g/ha [2]: ≥ 80%
pest or weed control at 100 g/ha ([3]; in Zea mays): ≥ 80%

Cc1cc(C#N)cc(C(=O)NCC#N)c1NC(=O)c1cc(Cn2nnc(C(F)(F)F)n2)nn1-c1ncccc1C(F)(F)F [Example 253]
chromatographic logP [1, 4]: 2.81
pest or weed control at 100 g/ha [2]: ≥ 80%
pest or weed control at 100 g/ha [3, 5]: ≥ 80%

Cc1cc(C#N)cc(C(=O)NC(C)(C)C)c1NC(=O)c1cc(Cn2nnc(C(F)(F)C(F)(F)C(F)(F)F)n2)nn1-c1ncccc1Cl [Example 108]
chromatographic logP [1, 7]: 4.16
pest or weed control at 100 g/ha [2]: ≥ 80%
pest or weed control at 100 g/ha ([3]; in Zea mays): ≥ 80%

CNC(=O)c1cc(I)cc(C)c1NC(=O)c1cc(Cn2nnc(C(F)(F)C(F)(F)F)n2)nn1-c1ncccc1Cl [Example 140]
chromatographic logP ([1]; log P): 3.64
pest or weed control at 100 g/ha [2]: ≥ 80%
pest or weed control at 100 g/ha ([3]; in Zea mays): ≥ 80%

Cc1cc(C#N)cc(C(=O)NC2CCCCC2)c1NC(=O)c1cc(Cn2nnc(C(F)(F)F)n2)nn1-c1ncccc1Cl [Example 400]
chromatographic logP ([1]; log P): 3.63
pest or weed control at 100 g/ha [2]: ≥ 80%
pest or weed control at 100 g/ha ([3]; in Zea mays): ≥ 80%

Cc1cc(Br)cc(C(=O)NC(C)C)c1NC(=O)c1cc(Cn2nnc(C(F)(F)F)n2)nn1-c1ncccc1Cl [Example 39]
chromatographic logP ([1]; log P): 3.57
pest or weed control at 100 g/ha [2]: ≥ 80%
pest or weed control at 100 g/ha ([3]; in Zea mays): ≥ 80%

CC(NC(=O)c1cc(Cl)cc(Cl)c1NC(=O)c1cc(Cn2nnc(C(F)(F)F)n2)nn1-c1ncccc1Cl)C1CC1 (stereo not drawn) [Example 56]
chromatographic logP ([1]; log P): 3.71
pest or weed control at 100 g/ha [2]: ≥ 80%
pest or weed control at 100 g/ha ([3]; in Zea mays): ≥ 80%

Cc1cc(Cl)cc(C(=O)NCC#N)c1NC(=O)c1cc(Cn2nnc(C(F)(C(F)(F)F)C(F)(F)F)n2)nn1-c1ncccc1Cl [Example 358]
chromatographic logP ([1]; log P): 3.62
pest or weed control at 100 g/ha [2]: ≥ 80%
pest or weed control at 100 g/ha ([3]; in Zea mays): ≥ 80%

CNC(=O)c1cc(I)cc(C)c1NC(=O)c1cc(Cn2nnc(C(F)(F)F)n2)nn1-c1ncccc1C(F)(F)F [Example 247]
chromatographic logP [1, 4]: 3.4
pest or weed control at 100 g/ha [2]: ≥ 80%
pest or weed control at 100 g/ha [3, 5]: ≥ 80%

Cc1cc(I)cc(C(=O)NC(C)C2CC2)c1NC(=O)c1cc(Cn2nnc(C(F)(F)F)n2)nn1-c1ncccc1Cl (stereo not drawn) [Example 68]
chromatographic logP ([1]; log P): 4.01
pest or weed control at 100 g/ha [2]: ≥ 80%
pest or weed control at 100 g/ha ([3]; in Zea mays): ≥ 80%

CSC[C@H](C)NC(=O)c1cc(C#N)cc(C)c1NC(=O)c1cc(Cn2nnc(C(F)(F)F)n2)nn1-c1ncccc1Cl [Example 14]
chromatographic logP ([1]; log P): 3.28
pest or weed control at 100 g/ha [2]: ≥ 80%
pest or weed control at 100 g/ha ([3]; in Zea mays): ≥ 80%

Cc1cc(I)cc(C(=O)NC(C)C)c1NC(=O)c1cc(Cn2nnc(C(F)(F)F)n2)nn1-c1ncccc1Br [Example 413]
chromatographic logP [1, 6]: 3.77
pest or weed control at 100 g/ha [2]: ≥ 80%
pest or weed control at 100 g/ha [3, 5]: ≥ 80%

Cc1cc(F)cc(C(=O)NCC2CC2)c1NC(=O)c1cc(Cn2nnc(C(F)(F)F)n2)nn1-c1ncccc1Cl [Example 48]
chromatographic logP ([1]; log P): 3.18
pest or weed control at 100 g/ha [2]: ≥ 80%
pest or weed control at 100 g/ha ([3]; in Zea mays): ≥ 80%

Cc1cc(Cl)cc(C(=O)NC(C)C2CC2)c1NC(=O)c1cc(Cn2nnc(C(F)(C(F)(F)F)C(F)(F)F)n2)nn1-c1ncccc1Cl (stereo not drawn) [Example 366]
chromatographic logP [1, 4]: 4.5
pest or weed control at 100 g/ha [2]: ≥ 80%
pest or weed control at 100 g/ha [3, 5]: ≥ 80%

CCNC(=O)c1cc(Cl)cc(C)c1NC(=O)c1cc(Cn2nnc(C(F)(F)F)n2)nn1-c1ncccc1C(F)(F)F [Example 237]
chromatographic logP [1, 4]: 3.43
pest or weed control at 100 g/ha [2]: ≥ 80%
pest or weed control at 100 g/ha [3, 5]: ≥ 80%

CCNC(=O)c1cc(Cl)cc(Cl)c1NC(=O)c1cc(Cn2nnc(C(F)(F)C(F)(F)F)n2)nn1-c1ncccc1Cl [Example 152]
chromatographic logP ([1]; log P): 3.57
pest or weed control at 100 g/ha [2]: ≥ 80%
pest or weed control at 100 g/ha ([3]; in Zea mays): ≥ 80%

CCNC(=O)c1cc(C#N)cc(C)c1NC(=O)c1cc(Cn2nnc(C(F)(F)C(F)(F)F)n2)nn1-c1ncccc1Cl [Example 215]
chromatographic logP ([1]; log P): 3.24
pest or weed control at 100 g/ha [2]: ≥ 80%
pest or weed control at 100 g/ha ([3]; in Zea mays): ≥ 80%

Cc1cc(Br)cc(C(N)=O)c1NC(=O)c1cc(Cn2nnc(C(F)(F)F)n2)nn1-c1ncccc1C(F)(F)F [Example 251]
chromatographic logP [1, 4]: 3.04
pest or weed control at 100 g/ha [2]: ≥ 80%
pest or weed control at 100 g/ha [3, 5]: ≥ 80%

Cc1cc(C#N)cc(C(=O)NCC(C)(C)CF)c1NC(=O)c1cc(Cn2nnc(C(F)(F)F)n2)nn1-c1ncccc1Cl [Example 116]
chromatographic logP ([1]; log P): 3.35
pest or weed control at 100 g/ha [2]: ≥ 80%
pest or weed control at 100 g/ha ([3]; in Zea mays): ≥ 80%

Cc1cc(C#N)cc(C(=O)NC(C)(C)C)c1NC(=O)c1cc(Cn2nnnc2C(F)(F)F)nn1-c1ccccc1 [Example 520]
chromatographic logP [1, 6]: 3.35
pest or weed control at 100 g/ha [2]: ≥ 80%
pest or weed control at 100 g/ha [3, 5]: ≥ 80%

Cc1cc(C#N)cc(C(=O)NC(C)C)c1NC(=O)c1cc(Cn2nnc(C(F)(F)C(F)(F)F)n2)nn1-c1ccccc1Cl [Example 539]
chromatographic logP [1, 6]: 3.91
pest or weed control at 100 g/ha [2]: ≥ 80%
pest or weed control at 100 g/ha [3, 5]: ≥ 80%

Cc1cc(I)cc(C(=O)NC(C)C)c1NC(=O)c1cc(Cn2nnc(C(F)(F)F)n2)nn1-c1ncccc1Cl [Example 71]
chromatographic logP ([1]; log P): 3.73
pest or weed control at 100 g/ha [2]: ≥ 80%
pest or weed control at 100 g/ha ([3]; in Zea mays): ≥ 80%

Cc1cc(Cl)cc(C(=O)NC2CC2)c1NC(=O)c1cc(Cn2nnc(C(F)(F)C(F)(F)C(F)(F)F)n2)nn1-c1ncccc1Cl [Example 4]
chromatographic logP [1, 7]: 3.96
pest or weed control at 100 g/ha [2]: ≥ 80%
pest or weed control at 100 g/ha ([3]; in Zea mays): ≥ 80%

Cc1cc(C#N)cc(C(=O)NC(C)C2CC2)c1NC(=O)c1cc(Cn2nnnc2C(F)(C(F)(F)F)C(F)(F)F)nn1-c1ncccc1Cl (stereo not drawn) [Example 499]
chromatographic logP [1, 6]: 3.8
pest or weed control at 100 g/ha [2]: ≥ 80%
pest or weed control at 100 g/ha [3, 5]: ≥ 80%
